Measured values from ChEMBL document CHEMBL1201862, “PubChem BioAssay data set” (2004).
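Results reflect a 48-hour exposure of cells in 96-well plates to compound at five concentrations. Here, GI50 denotes the concentration required for 50% inhibition of growth.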 The source made the active and inactive calls. Cut-off read from the data, not from the text of the source: active = GI50 up to about 1.1 µM and inactive = higher.

How the values were obtained:
Assay in all cases: inhibition of tumour cell growth, NCI panel, 48 h
SK-OV-3 = system: SK-OV-3
M19-MEL = system: M19-MEL
A549 = system: A549
A498 = system: A498
HL-60 = system: HL-60
XF498 = system: XF498
NCI-H23 = system: NCI-H23
CCRF-CEM = system: CCRF-CEM
DLD-1 = system: DLD-1
RXF 393 = system: RXF 393
MOLT-4 = system: MOLT-4
HOP-62 = system: HOP-62
HCC 2998 = system: HCC 2998
M14 = system: M14
Malme-3M = system: Malme-3M
KM-20L2 = system: KM-20L2
COLO 205 = system: COLO 205
SF-539 = system: SF-539
IGROV-1 = system: IGROV-1
ACHN = system: ACHN
DMS-114 = system: DMS-114
NCI-H226 = system: NCI-H226
HOP-18 = system: HOP-18
786-0 = system: 786-0
SNB-78 = system: SNB-78
UO-31 = system: UO-31
NCI-H460 = system: NCI-H460
RXF 631 = system: RXF 631
SW-620 = system: SW-620
HCT-15 = system: HCT-15
SNB-19 = system: SNB-19
OVCAR-5 = system: OVCAR-5
UACC-257 = system: UACC-257
SN12C = system: SN12C
HCT-116 = system: HCT-116
SF-295 = system: SF-295
SK-MEL-2 = system: SK-MEL-2
TK-10 = system: TK-10
OVCAR-8 = system: OVCAR-8
NCI-H522 = system: NCI-H522
EKVX = system: EKVX
OVCAR-3 = system: OVCAR-3
KM12 = system: KM12
DMS-273 = system: DMS-273
HOP-92 = system: HOP-92
SK-MEL-28 = system: SK-MEL-28
SR = system: SR
K562 = system: K562
LXFL 529 = system: LXFL 529
U-251 = system: U-251
RPMI-8226 = system: RPMI-8226
SK-MEL-5 = system: SK-MEL-5
HT-29 = system: HT-29
UACC-62 = system: UACC-62
SNB-75 = system: SNB-75
SF-268 = system: SF-268
CAKI-1 = system: CAKI-1
LOX IMVI = system: LOX IMVI
OVCAR-4 = system: OVCAR-4

C=C1C(=O)C23CC1CCC2C12CO[C@@H]4OCC(C)(CC[C@@H]1OC3=O)C42 (stereo partly specified)
GI50 (SK-OV-3): 23.3 µM (inactive) | GI50 (M19-MEL): 6.53 µM (inactive) | GI50 (A549): 10.9 µM (inactive) | GI50 (A498): 19.4 µM (inactive) | GI50 (HL-60): 0.569 µM (active) | GI50 (XF498): 1.92 µM (inactive) | GI50 (NCI-H23): 6.04 µM (inactive) | GI50 (CCRF-CEM): 2.38 µM (inactive) | GI50 (DLD-1): 3.52 µM (inactive) | GI50 (RXF 393): 2.51 µM (inactive) | GI50 (MOLT-4): 3.01 µM (inactive) | GI50 (HOP-62): 27 µM (inactive) | GI50 (HCC 2998): 16.4 µM (inactive) | GI50 (M14): 1.31 µM (inactive) | GI50 (Malme-3M): 2.3 µM (inactive) | GI50 (KM-20L2): 5.38 µM (inactive) | GI50 (COLO 205): 2.1 µM (inactive) | GI50 (SF-539): 7.14 µM (inactive) | GI50 (IGROV-1): 6.95 µM (inactive) | GI50 (ACHN): 3.14 µM (inactive) | GI50 (DMS-114): 1.9 µM (inactive) | GI50 (NCI-H226): 20.7 µM (inactive) | GI50 (HOP-18): 6.41 µM (inactive) | GI50 (786-0): 2.24 µM (inactive) | GI50 (SNB-78): 2.3 µM (inactive) | GI50 (UO-31): 9.71 µM (inactive) | GI50 (NCI-H460): 6.64 µM (inactive) | GI50 (RXF 631): 12.1 µM (inactive) | GI50 (SW-620): 2.49 µM (inactive) | GI50 (HCT-15): 2.9 µM | GI50 (SNB-19): 8 µM (inactive) | GI50 (OVCAR-5): 15.8 µM (inactive) | GI50 (UACC-257): 4.98 µM (inactive) | GI50 (SN12C): 8.32 µM (inactive) | GI50 (HCT-116): 2.08 µM (inactive) | GI50 (SF-295): 16.9 µM (inactive) | GI50 (SK-MEL-2): 11.9 µM (inactive) | GI50 (TK-10): 5.75 µM (inactive) | GI50 (OVCAR-8): 2.02 µM (inactive) | GI50 (NCI-H522): 1.01 µM (active) | GI50 (EKVX): 15.5 µM (inactive) | GI50 (OVCAR-3): 6.49 µM (inactive) | GI50 (KM12): 5.43 µM (inactive) | GI50 (DMS-273): 6.56 µM (inactive) | GI50 (HOP-92): 2.64 µM (inactive) | GI50 (SK-MEL-28): 2.23 µM (inactive) | GI50 (SR): 1.35 µM (inactive) | GI50 (K562): 7.69 µM (inactive) | GI50 (LXFL 529): 2.78 µM (inactive) | GI50 (U-251): 14 µM (inactive) | GI50 (RPMI-8226): 1.57 µM (inactive) | GI50 (SK-MEL-5): 14.8 µM (inactive) | GI50 (HT-29): 2.54 µM (inactive) | GI50 (UACC-62): 11.7 µM (inactive) | GI50 (SNB-75): 16.4 µM (inactive) | GI50 (SF-268): 6.32 µM (inactive) | GI50 (CAKI-1): 2.38 µM (inactive)

Cc1ccc(N(C(=O)CC(=O)NN)C(=O)c2ccccc2Cl)cc1
GI50 (SK-OV-3): > 100 µM (inactive) | GI50 (M19-MEL): > 100 µM (inactive) | GI50 (A549): > 100 µM (inactive) | GI50 (A498): > 100 µM (inactive) | GI50 (HL-60): > 100 µM (inactive) | GI50 (XF498): > 100 µM (inactive) | GI50 (NCI-H23): > 100 µM (inactive) | GI50 (CCRF-CEM): > 100 µM (inactive) | GI50 (DLD-1): > 100 µM (inactive) | GI50 (RXF 393): > 100 µM (inactive) | GI50 (MOLT-4): > 100 µM (inactive) | GI50 (HOP-62): > 100 µM (inactive) | GI50 (HCC 2998): > 100 µM (inactive) | GI50 (M14): > 100 µM (inactive) | GI50 (Malme-3M): > 100 µM (inactive) | GI50 (KM-20L2): > 100 µM (inactive) | GI50 (COLO 205): > 100 µM (inactive) | GI50 (SF-539): > 100 µM (inactive) | GI50 (IGROV-1): > 100 µM (inactive) | GI50 (ACHN): > 100 µM (inactive) | GI50 (DMS-114): > 100 µM (inactive) | GI50 (NCI-H226): > 100 µM (inactive) | GI50 (HOP-18): > 100 µM (inactive) | GI50 (786-0): > 100 µM (inactive) | GI50 (SNB-78): > 100 µM (inactive) | GI50 (UO-31): > 100 µM (inactive) | GI50 (NCI-H460): > 100 µM (inactive) | GI50 (RXF 631): > 100 µM (inactive) | GI50 (SW-620): > 100 µM (inactive) | GI50 (HCT-15): > 100 µM | GI50 (SNB-19): > 100 µM (inactive) | GI50 (OVCAR-5): > 100 µM (inactive) | GI50 (UACC-257): > 100 µM (inactive) | GI50 (SN12C): > 100 µM (inactive) | GI50 (HCT-116): > 100 µM (inactive) | GI50 (LOX IMVI): > 100 µM (inactive) | GI50 (SF-295): > 100 µM (inactive) | GI50 (OVCAR-8): > 100 µM (inactive) | GI50 (NCI-H522): > 100 µM (inactive) | GI50 (EKVX): > 100 µM (inactive) | GI50 (OVCAR-3): > 100 µM (inactive) | GI50 (KM12): > 100 µM (inactive) | GI50 (DMS-273): > 100 µM (inactive) | GI50 (HOP-92): > 100 µM (inactive) | GI50 (SK-MEL-28): > 100 µM (inactive) | GI50 (K562): > 100 µM (inactive) | GI50 (LXFL 529): > 100 µM (inactive) | GI50 (U-251): > 100 µM (inactive) | GI50 (RPMI-8226): > 100 µM (inactive) | GI50 (HT-29): > 100 µM (inactive) | GI50 (UACC-62): > 100 µM (inactive) | GI50 (SNB-75): > 100 µM (inactive) | GI50 (SF-268): > 100 µM (inactive) | GI50 (CAKI-1): > 100 µM (inactive) | GI50 (OVCAR-4): > 100 µM (inactive)

Cc1cc2c(=O)c(C)n[nH]c2c(C#N)c1C
GI50 (SK-OV-3): > 100 µM (inactive) | GI50 (M19-MEL): > 100 µM (inactive) | GI50 (A549): > 100 µM (inactive) | GI50 (HL-60): > 100 µM (inactive) | GI50 (XF498): > 100 µM (inactive) | GI50 (NCI-H23): > 100 µM (inactive) | GI50 (CCRF-CEM): > 100 µM (inactive) | GI50 (DLD-1): > 100 µM (inactive) | GI50 (RXF 393): > 100 µM (inactive) | GI50 (MOLT-4): > 100 µM (inactive) | GI50 (HOP-62): > 100 µM (inactive) | GI50 (HCC 2998): > 100 µM (inactive) | GI50 (Malme-3M): > 100 µM (inactive) | GI50 (KM-20L2): > 100 µM (inactive) | GI50 (COLO 205): > 100 µM (inactive) | GI50 (SF-539): > 100 µM (inactive) | GI50 (IGROV-1): > 100 µM (inactive) | GI50 (ACHN): > 100 µM (inactive) | GI50 (NCI-H226): > 100 µM (inactive) | GI50 (HOP-18): > 100 µM (inactive) | GI50 (786-0): > 100 µM (inactive) | GI50 (UO-31): > 100 µM (inactive) | GI50 (NCI-H460): > 100 µM (inactive) | GI50 (RXF 631): > 100 µM (inactive) | GI50 (SW-620): > 100 µM (inactive) | GI50 (HCT-15): > 100 µM | GI50 (SNB-19): > 100 µM (inactive) | GI50 (OVCAR-5): > 100 µM (inactive) | GI50 (UACC-257): > 100 µM (inactive) | GI50 (SN12C): > 100 µM (inactive) | GI50 (HCT-116): > 100 µM (inactive) | GI50 (LOX IMVI): > 100 µM (inactive) | GI50 (SF-295): > 100 µM (inactive) | GI50 (SK-MEL-2): > 10 µM (inactive) | GI50 (TK-10): > 100 µM (inactive) | GI50 (OVCAR-8): > 100 µM (inactive) | GI50 (EKVX): > 100 µM (inactive) | GI50 (OVCAR-3): > 100 µM (inactive) | GI50 (DMS-273): > 100 µM (inactive) | GI50 (HOP-92): 29.4 µM (inactive) | GI50 (SK-MEL-28): > 100 µM (inactive) | GI50 (SR): > 100 µM (inactive) | GI50 (LXFL 529): > 100 µM (inactive) | GI50 (U-251): > 100 µM (inactive) | GI50 (RPMI-8226): > 100 µM (inactive) | GI50 (HT-29): > 100 µM (inactive) | GI50 (UACC-62): > 100 µM (inactive) | GI50 (SNB-75): > 100 µM (inactive) | GI50 (SF-268): > 100 µM (inactive)
